In one experiment the test system is S. aureus (ATCC 29213). As to the kind of experiment: Filter disc zone of inhibition on tryptic soy agar. The class given is cell-based. Particulars: 7 mm filter disc soaked with solution (equivalent of 1% silver nitrate), 37° C. overnight, measured from disc edge, average of two trials. As to the method:
(§1) Additionally, a non-stabilized silver thiosulfate complex made according to Example 5. […] Filter paper discs (7 mm diameter) were soaked with either a stabilized silver thiosulfate solution or a non-stabilized silver thiosulfate solution. The antimicrobial studies were performed by first plating S. aureus (ATCC 29213) or E. coli (ATCC 225922) on tryptic soy agar. A disc containing the stabilized thiosulfate solution or the control solution was placed one each of these microbial lawns. […] The culture plates were incubated at 37° C. overnight. The zone of microbial growth inhibition (ZOI) was measured (in millimeters) from the edge of each filter disc and the results from two trials were averaged. The larger the measured ZOI, the greater the antimicrobial effect.

The next experiment deals with E. coli (ATCC 225922). Kind of experiment: Filter disc zone of inhibition on tryptic soy agar. Particulars: 7 mm filter disc soaked with solution (equivalent of 1% silver nitrate), 37° C. overnight, measured from disc edge, average of two trials. The experiment is classed as cell-based. Here is the method:
as §1

“silver nitrate [Silver Nitrate Solution]”: the “S. aureus Zone Of Inhibition” value in the experiment with S. aureus (ATCC 29213) stood at 1.5 millimeters. Besides, in the experiment on E. coli (ATCC 225922), the “E. coli Zone Of Inhibition” value is 1.0 millimeters.
